The values that follow come from EP1754489A1, “A method of treating vitiligo using synergistic formation” (Ramaiah, Abburi, Prof., priority 2005, dated 2007).

One test has as its system fast spreading vitiligo. The test is described as follows: Clinical trial: arrest of disease activity with oral minipulse (OMP) of beta methasone with or without local active peptide. The test is classed as in vivo, human volunteers. From the text: (§1) That this happens was shown in a clinical trial on human volunteers. The above twin objectives were accomplished. Fig.2a describes two vitiligo patches at the start of treatment of oral steroids, while 2b describes the same patches at the end of 3 months of treatment with oral steroids while at the same time bFGF peptide(s) lotion was applied locally once a day on the lower vitiligo patch for the duration of intake of oral steroids. […] The arrest of the fast spread of the disease was accomplished to the same extent of 84% at the end of 6 months of treatment with oral steroids and the result was not altered by the local application of bFGF peptide(s) lotion (See table 3 for more details).

Test [1] concerns vitiligo patches of volunteers. In words: Clinical trial: repigmentation with oral minipulse of beta methasone with or without local active peptide. The test is classed as in vivo, human volunteers.
Description: as §1
At the end of 3 months of combinatorial treatment with steroids and local application of bFGF lotion more than 3 fold more patients got pigmented to a marked extent than with steroid alone (See Table 4 for more details). The percentage of volunteers who had moderate and marked rate of repigmentation with combinatorial therapy at the end of three months of treatment is twice than the steroid therapy alone.

For the compound `C[C@H]1C[C@H]2[C@@H]3CCC4=CC(=O)C=C[C@]4(C)[C@@]3(F)[C@@H](O)C[C@]2(C)[C@@]1(O)C(=O)CO` [OMP Alone, beta methasone], in the test on fast spreading vitiligo (At 3 months), the “No. of patients where the disease was arrested with time” value is 12 and the “Patients where the disease was arrested, percent” value was found to be 75%. In addition, in the test with fast spreading vitiligo (At 6 months), the “No. of patients where the disease was arrested with time” value is 14 and the “Patients where the disease was arrested, percent” value turned out to be 87.5%. In the test with fast spreading vitiligo (At 6 months, listed as oral steroids), the “Patients where the disease was arrested, percent” value is listed as 84%. In test [1] (At 3 months), the “Repigmentation Marked, number of volunteers” value came out at 2; the “Repigmentation Minimal, number of volunteers” value is recorded as 11; the “Repigmentation Moderate, number of volunteers” value was 3. Moreover, in test [1] (At 6 months), the “Repigmentation Marked, number of volunteers” value is recorded as 4; the “Repigmentation Minimal, number of volunteers” value is 8; the “Repigmentation Moderate, number of volunteers” value came out at 4.
